Measured values taken from patent US5962636A, “Peptides capable of modulating inflammatory heart disease” (priority 1998, dated 1999).

System: Balb/c mice
Assay: Oligodeoxynucleotides as adjuvants: immunization with M7A-alpha peptide plus oligo; presence and severity of inflammatory heart disease
Format: in vivo
Conditions: for Prevalence / Severity: day 21; for immunostimulatory / adjuvant activity: result in words, with M7A-alpha peptide, in the absence of Freund's complete adjuvant; for Severity: score ± SD, scale as in Example 1, adjuvant given with M7A-alpha peptide
[1] = adjuvant given with about 50 micrograms M7A-alpha peptide, days 0 and 7, oligos about 10 nmol with Freund's incomplete adjuvant

Sequence | Prevalence (about 10 nmol oligo without peptide (Peptide: None)) | Prevalence [1] | immunostimulatory / adjuvant activity | Severity
GTACTGACGTTTACTCTTGG (chemistry not given here) [CpG, oligonucleotide with CpG motif derived from DNA encoding a 60 kDa cysteine rich outer membrane protein from Chlamydia trachomatis] | 0/5 | 5/5 | potent immunostimulator | 1.2 ± 0.4
GTACTGAGCTTTACTCTTGG (chemistry not given here) [non-CpG, counterpart of the CpG oligo not containing the CpG motif, reference compound] | – | 1/5 | hardly effective as an adjuvant | 1.0 ± 0.0
